Literature values in patent publication US11654095B2, “Method for dyeing keratinous material, comprising the use of an organosilicon compound, a chromophoric compound, a modified fatty acid ester and a sealing reagent II” (Henkel AG & Co. KGaA, priority 2019, dated 2023).
Where two headings read alike, the source gives them in different places.

Row | SMILES | solubility in water (water at 25° C.) | solubility in water (25° C.)
1 | O=C([O-])C1=NN(c2ccc(S(=O)(=O)[O-])cc2)C(=O)C1N=Nc1ccc(S(=O)(=O)[O-])cc1.[Na+].[Na+].[Na+] (stereo not shown) [Acid Yellow 23, trisodium salt of 4,5-dihydro-5-oxo-1-(4-sulfophenyl)-4-((4-sulfophenyl)azo)-1H-pyrazole-3-carboxylic acid] | highly soluble | –
2 | Nc1cc(S(=O)(=O)[O-])cc2cc(S(=O)(=O)[O-])c(N=Nc3ccccc3)c(O)c12.[Na+].[Na+] [Acid Red 33, disodium salt of 5-amino-4-hydroxy-3-(phenylazo)-naphthalene-2,7-disulphonate] | – | 2500 µg/mL
3 | O=S(=O)([O-])c1ccc(N=Nc2c(O)ccc3ccccc23)cc1.[Na+] [Acid Orange 7, sodium salt of 4-[(2-hydroxy-1-naphthyl)azo]benzene sulphonate] | – | more than 7 g/L
4 | O=C([O-])c1c(Cl)c(Cl)c(Cl)c(Cl)c1-c1c2c(Br)cc(=O)c(Br)c-2oc2c(Br)c(O)cc(Br)c12.O=C([O-])c1c(Cl)c(Cl)c(Cl)c(Cl)c1-c1c2c(Br)cc(=O)c(Br)c-2oc2c(Br)c(O)cc(Br)c12.[Na+].[Na+] [Acid Red 92, disodium salt of 3,4,5,6-tetrachloro-2-(1,4,5,8-tetrabromo-6-hydroxy-3-oxoxanthen-9-yl)benzoic acid] | – | greater than 10 g/L
